Results from article PMC11335206, “Exploring oak processionary caterpillar induced lepidopterism (part 2): ex vivo bio-assays unmask the role of TRPV1” (Cellular and Molecular Life Sciences: CMLS, 2024).
Positions of bridges follow the written chain, without caps; N, C: chain ends. No end group written: not given here.

Legend:
[1] = molecular target: hTRPV1 (Homo sapiens, UniProt Q8NER1); experiment: TEVC electrophysiology on TRPV1 expressing oocytes; type: cell-based
Description: We used Xenopus laevis oocytes as a heterologous expression system in electrophysiological experiments to express ligand-gated and voltage-gated ion channels. Molecular biology techniques (subcloning, transformation, linearization and transcription) were used to make RNA encoding: (1) transient receptor potential channel (hTRPV1 and hTRPA1), (2) histamine receptors (hH1R and hH4R), (3) bradykinin receptor (hB2R), (4) nicotinic acetylcholine receptor (adult muscle type hα1β1δε nAChR and neuronal hα7 nAChR), (5) acid-sensing ion channel (rASIC1a), (6) voltage-gated sodium channels (rNav1.1, rNav1.2, rNav1.3, rNav1.4, mNav1.6 and hNav1.8) and their auxiliary subunits rβ1 and hβ1 and (7) potassium channels (hKv1.1, hKv1.2, hKv1.3, hKv1.4, hKv1.5, hKv1.6, hKv3.1, hKv10.1, mGIRK1, mGIRK2 and mIRK1). Plasmids corresponding to each channel or receptor underwent linearization using specific restriction enzymes and subsequent transcription with the T3, T7, or SP6 mMESSAGE mMACHINE transcription kit (Ambion, USA). Depending on the channel type, defolliculated oocytes were injected with 10–50 nL of cRNA at a concentration of 1 ng/nL using a micro-injector (Nanoject II; Drummond Scientific Company, USA). Electrophysiological experiments were conducted following cRNA injection, with an incubation period of 1–5 days at 16 °C in ND96 buffer.

[2] = test system: TRPV1; parameters: method as in earlier work; settings: Latoia consocia; ref [35] Yao et al. (2019); cited from earlier work
[3] = ref [28], cited from earlier work
[4] = test system: hH1R; type: cell-based, human
Description: (§2) We used Xenopus laevis oocytes as a heterologous expression system in electrophysiological experiments to express ligand-gated and voltage-gated ion channels. […] Plasmids corresponding to each channel or receptor underwent linearization using specific restriction enzymes and subsequent transcription with the T3, T7, or SP6 mMESSAGE mMACHINE transcription kit (Ambion, USA). Depending on the channel type, defolliculated oocytes were injected with 10–50 nL of cRNA at a concentration of 1 ng/nL using a micro-injector (Nanoject II; Drummond Scientific Company, USA). Electrophysiological experiments were conducted following cRNA injection, with an incubation period of 1–5 days at 16 °C in ND96 buffer.
(§3) A two-electrode voltage clamp (TEVC) system utilizing a GeneClamp 500 amplifier (Molecular Devices, Downingtown, PA, USA) was under the control of a pClamp data acquisition system (Axon Instruments, USA), and pClamp Clampex 10.4 software (Axon Instruments®, USA). This setup was employed to measure currents across the cell membrane. The whole-cell currents from the oocytes were recorded at room temperature (18–22 °C). […]
(§4) The H1R and B2R couples with Gαq/11 proteins, initiating the release of Ca^2+ from the intracellular stores. This rise in intracellular Ca^2+ will activate the Ca^2+-activated Cl^− channels, serving as a sensitive readout.

[5] = test system: individuals with atopic dermatitis; settings: topical, phase III, ref [36]; cited from earlier work
Description: The results are consistent with the discoveries presented by Yao et al. (2019) regarding Latoia consocia, a caterpillar indigenous to South-West China. […] Despite substantial investments in the quest for TRPV1 antagonists, yet no antagonist is available on the market. Presently, a ...

[6] = test system: hH4R; experiment: TEVC on H4R-GIRK1/GIRK2-RGS4 oocytes; type: cell-based, human
Description: as §2
A two-electrode voltage clamp (TEVC) system utilizing a GeneClamp 500 amplifier (Molecular Devices, Downingtown, PA, USA) was under the control of a pClamp data acquisition system (Axon Instruments, USA), and pClamp Clampex 10.4 software (Axon Instruments®, USA). This setup was employed to measure currents across the cell membrane. The whole-cell currents from the oocytes were recorded at room temperature (18–22 °C). Two micro-electrodes, comprising voltage and current electrodes, were crafted from borosilicate glass capillaries (1.14 mm outside diameter, 0.7 mm inside diameter), pulled using a microelectrode puller, PUL-1 (World Precision Instruments, USA). […]

[7] = test system: hB2R; experiment: TEVC on B2R expressing oocytes; type: cell-based, human; settings: 1 µM bradykinin; ramp −120 to +70 mV from −20 mV
Description: as §2, §3, §4

[8] = test system: hTRPA1; experiment: TEVC electrophysiology on TRPA1 expressing oocytes; type: cell-based, human; settings: 1 µM A967079; 50 µM mustard oil; holding −90 mV; n ≥ 3
Description: as §2, §3
TRPV1 and TRPA1 currents were continuously monitored in a perfusing ND96 solution, following a protocol at −90 mV for 400 s. […]

[9] = test system: TRPV1; settings: HEK293 cells, ref [44] Ahern et al. (2005), cited from earlier work
Description: (§1) Putrescine is a small aliphatic polyamine synthesized by ornithine decarboxylase (ODC) and found in the venom of other animals. Under physiological conditions, putrescine undergoes complete protonation. This property enables putrescine to interact with negatively charged macromolecules, such as DNA, RNA, ATP, phospholipids, or proteins. As a result, it plays a significant role in v ...

[10] = test system: histamine-N-methyltransferase; settings: ref [47]; cited from earlier work
Description: as §1

[11] = test system: rat paw; settings: 10 µmol/paw, subcutaneous injection, ref [46]; cited from earlier work
Description: as §1

hTRPV1, sequence (Q8NER1 whole entry): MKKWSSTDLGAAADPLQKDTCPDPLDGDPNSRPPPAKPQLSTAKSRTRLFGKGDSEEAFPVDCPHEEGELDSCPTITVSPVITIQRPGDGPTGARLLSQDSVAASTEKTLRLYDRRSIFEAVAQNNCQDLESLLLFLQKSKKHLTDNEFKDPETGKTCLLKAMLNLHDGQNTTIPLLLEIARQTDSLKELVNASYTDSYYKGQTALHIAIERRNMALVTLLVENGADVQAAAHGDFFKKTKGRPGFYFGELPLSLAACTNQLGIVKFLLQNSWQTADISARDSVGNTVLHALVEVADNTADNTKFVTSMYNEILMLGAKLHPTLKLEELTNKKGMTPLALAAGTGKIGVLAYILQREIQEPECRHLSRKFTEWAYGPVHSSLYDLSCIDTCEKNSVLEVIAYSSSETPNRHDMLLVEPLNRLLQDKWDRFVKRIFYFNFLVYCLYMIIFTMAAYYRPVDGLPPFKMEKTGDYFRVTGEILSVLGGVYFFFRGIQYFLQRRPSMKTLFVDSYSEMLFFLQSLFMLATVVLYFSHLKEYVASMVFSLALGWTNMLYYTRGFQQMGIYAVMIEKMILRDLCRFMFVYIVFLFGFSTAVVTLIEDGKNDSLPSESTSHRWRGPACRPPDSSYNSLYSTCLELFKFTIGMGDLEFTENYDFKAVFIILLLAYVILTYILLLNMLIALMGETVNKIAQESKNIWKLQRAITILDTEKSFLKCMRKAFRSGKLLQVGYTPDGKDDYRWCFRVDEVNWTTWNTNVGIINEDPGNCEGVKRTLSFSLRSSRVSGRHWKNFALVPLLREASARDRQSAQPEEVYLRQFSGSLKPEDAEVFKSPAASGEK

Molecule: Oc1cc2c(cc1O)CN(C(=S)NCCc1ccc(Cl)cc1)CCC2 [capsazepine]
- block of venom extract-induced TRPV1 current increase ([1]; 10 µM capsazepine, 0.4 µg/µL extract + 1 µM capsaicin, holding −90 mV, n ≥ 3): the current increase by whole venom setae extract disappeared
- reduction of caterpillar-induced pain [2]: a notable reduction

Molecule: COc1ccc2c(c1)c(CC(=O)O)c(C)n2C(=O)c1ccc(Cl)cc1 [indomethacin]
- reduction of secapin-2 edema formation and pain sensation ([3]; nonspecific antagonist of cyclooxygenase): did not show any reducing effects on edema formation and pain sensation

Molecule: NCCc1c[nH]cn1 [histamine]
- H1R current by agonist [4]: a current increase

Molecule: CC(c1cc2ccccc2s1)N(O)C(N)=O (stereo not drawn) [Zileuton]
- suppression of pain and edema induced by secapin-2 ([3]; 5-lipoxygenase blocker, secapin-2 injection): suppress pain and edema responses

Molecule: CCCc1nc(C(F)(F)F)ccc1/C=C/C(=O)N[C@H](C)c1cc(F)c(NS(C)(=O)=O)c(F)c1 [Asivatrep]
- clinical efficacy [5]: encouraging results
- safety profile [5]: a favorable safety profile

Molecule: COc1cc(CNC(=O)CCCC/C=C/C(C)C)ccc1O [capsaicin]
- TRPV1 current by agonist [1]: a current increase

Molecule: CN1CCN(C(=O)c2cc3cc(Cl)ccc3[nH]2)CC1 [JNJ 7777120]
- block of histamine effect on H4R [6]: The effect of histamine (blue) was blocked

Molecule: bradykinin
- B2R conductance by agonist [7]: evoked a change of conductance

Molecule: CCC(=N\O)/C(C)=C/c1ccc(F)cc1 [A967079]
- block of mustard oil effect on TRPA1 [8]: is blocked

Molecule: NCCCCN [putrescine]
- TRPV1 activity, putrescine alone ([9]; 5 mM putrescine alone): did not induce a detectable TRPV1 activity
- enhancement of capsaicin-evoked TRPV1 current ([9]; 5 mM putrescine with 30 nM capsaicin): remarkably intensified the current evoked by 30 nM capsaicin
- histamine-N-methyltransferase activity [10]: inhibiting histamine-N-methyltransferase activity
- duration of sustained edema [11]: 6 h
- mechanical allodynia [11]: induction of mechanical allodynia

Molecule: DHETDLDDSNVPRIGRHIIDAPKRGCPEGYRKDHQGKCREVL (disulfide 26-38) [TPTX1-Tp1]
- effect on TRPV1, peptide alone ([1]; 1 µM TPTX1-Tp1 (Fig. 4B), no capsaicin, ramp −120 to +70 mV from −20 mV, ND96): does not have an effect on TRPV1 injected oocytes
- TRPV1 current with capsaicin ([1]; TPTX1-Tp1 combined with 0.1 µM capsaicin, ramp −120 to +70 mV from −20 mV, ND96): induces an increase in the current
